In patent US20250205268A1, “TREATMENT OF VIRUSES WITH ANTIVIRAL NUCLEOSIDES” (priority 2021, published 2025):
“Also recorded” adds a separate entry of the source. Like-named read-outs stand apart in the source and are kept apart here.

What was measured:
SARS-CoV-2 = format: in vivo
SARS-CoV-2 RNA = format: in vivo; conditions: for SARS-CoV-2 RNA titer, mean / SARS-CoV-2 RNA titer, mean change from baseline: interim
[1] = Part 2 interim analysis, MITT, 800 mg twice daily 5 days
[2] = Part 2 interim analysis, versus placebo
[3] = Part 2 interim, post-hoc sensitivity analysis, MITT
[4] = Part 2 interim, safety population
[5] = baseline RNA titer >10^6 copies/ml, Day 3
[6] = baseline RNA titer >10^6 copies/ml, Day 10
[7] = baseline RNA titer >10^6 copies/ml, Day 15
[8] = baseline RNA titer >10^6 copies/ml, Day 29
[9] = baseline RNA titer >10^6 copies/ml, EOT (Day 5)
[10] = baseline RNA titer ≤10^6 copies/ml, Day 3
[11] = baseline RNA titer ≤10^6 copies/ml, Day 10
[12] = baseline RNA titer ≤10^6 copies/ml, Day 15
[13] = baseline RNA titer ≤10^6 copies/ml, Day 29
[14] = baseline RNA titer ≤10^6 copies/ml, EOT (Day 5)

Structure (SMILES): CC(C)C(=O)OC[C@H]1O[C@@H](n2ccc(NO)nc2=O)[C@H](O)[C@@H]1O [Compound A, {(2R,3S,4R,5R)-3,4-dihydroxy-5-[4-(hydroxyimino)-2-oxo-3,4-dihydropyrimidin-1 (2H)-yl]oxolan-2-yl}methyl 2-methylpropanoate]
- deaths through Day 29 (SARS-CoV-2; Part 2 interim analysis): No participants in the Compound A group died; also recorded: No deaths were reported
- relative reduction in the percentage of participants hospitalized or died through Day 29 (SARS-CoV-2; Part 2 interim analysis): ~50%
- treatment difference (Compound A minus placebo) in hospitalization or death at day 29 (SARS-CoV-2; Part 2 interim analysis (28 of 385 vs 53 of 377), MITT): −6.8 percentage points
- hazard ratio for hospitalization/death through Day 29 (SARS-CoV-2; Part 2 interim analysis, MITT): 0.51
- reduction in the risk of hospitalization/death through Day 29 (time-to-event analysis) (SARS-CoV-2; Part 2 interim analysis, MITT): ~50%
- participants hospitalized or died through Day 29 (SARS-CoV-2; [1]): 7.3%
- reduction in the risk of hospitalization or death through Day 29 compared with placebo (SARS-CoV-2; [1]): 6.8 percentage point
- participants hospitalized or died through Day 29 (SARS-CoV-2; Part 2 interim analysis, subgroup positive for SARS-CoV-2 antibodies at baseline): 2.9%
- progression of COVID-19 signs/symptoms (SARS-CoV-2; [2]): lower percentage of participants in the Compound A than the placebo group reported progression
- sustained improvement/resolution of self-reported COVID-19 signs/symptoms (SARS-CoV-2; [2]): higher percentage of participants in the Compound A group achieved earlier sustained improvement/resolution
- COVID-19-related hospitalizations and/or deaths through Day 29, n (%) (SARS-CoV-2; [3]): 25 (6.5) n (%)
- Unadjusted difference vs placebo in COVID-19-related hospitalizations and/or deaths (SARS-CoV-2; [3]): −6.8
- Adjusted difference in rates % (95% CI) vs placebo in COVID-19-related hospitalizations and/or deaths (SARS-CoV-2; Part 2 interim, post-hoc sensitivity analysis, MITT, Miettinen & Nurminen): −6.8 (−11.1, −2.6) %
- Covid-19 signs and symptoms versus placebo (SARS-CoV-2; final): sustained abatement or resolution was more likely
- deaths reported through day 29 (SARS-CoV-2; final): One
- 29-day all-cause mortality (SARS-CoV-2; final all-randomized MITT): 0.1%
- difference vs placebo in hospitalization or death through day 29 (SARS-CoV-2; final all-randomized MITT): −3.0 percentage points
- hazard ratio for hospitalization or death through day 29 (SARS-CoV-2; final all-randomized MITT): 0.69
- rate of hospitalization or death through day 29 lower than placebo (time-to-event analysis) (SARS-CoV-2; final all-randomized MITT): approximately 31%
- participants hospitalized or died through day 29 (SARS-CoV-2; final all-randomized MITT (48 of 709), 800 mg twice daily 5 days): 6.8%
- risk of hospitalization or death through day 29 lower than placebo, adjusted for participant sex (SARS-CoV-2; final, post hoc analysis): 2.8 percentage points
- difference vs placebo in Covid-19-related hospitalizations or deaths (SARS-CoV-2; final, prespecified supporting analysis): −2.8 percentage points
- participants with Covid-19-related hospitalizations or deaths (SARS-CoV-2; final, prespecified supporting analysis (45 of 709)): 6.3%
- risk of death lower than with placebo (SARS-CoV-2; final, through day 29): 89%
- AE: COVID-19 pneumonia (Part 2 interim): 4.9%
- AE: bacterial pneumonia (Part 2 interim): 2.1%
- AE: worsening COVID-19 (Part 2 interim): 8.0%
- tolerability (Part 2 interim analysis): well-tolerated
- Died [4]: (0.0) %
- Estimated difference vs placebo: Died [4]: −2.6%
- adverse event: Covid-19 pneumonia (final): 6.3%
- adverse event: bacterial pneumonia (final): 2.0%
- adverse event: worsening of Covid-19 (final): 7.9%
- Death (final, safety population): 2 (0.3) number (percent)
- Estimated Difference (95% CI) vs placebo: Death (final, safety population): −1.4 (−2.7 to −0.5) percentage points
- AE: diarrhea (human, in vivo): 3.9%
- AE: nausea (human, in vivo): 2.8%
- AE: respiratory failure (human, in vivo): 1.0%
- At least 1 serious AE (human, in vivo): (7.3) %
- At least 1 serious drug-related AE (human, in vivo): (0.0) %
- Discontinued the assigned regimen because of a serious adverse event (human, in vivo): 5 (0.7) number (percent)
- Discontinued the assigned regimen because of a serious adverse event related to the assigned regimen (human, in vivo): 0 number (percent)
- Discontinued the assigned regimen because of an adverse event (human, in vivo): 10 (1.4) number (percent)
- Discontinued the assigned regimen because of an adverse event related to the assigned regimen (human, in vivo): 4 (0.6) number (percent)
- Discontinued treatment due to a drug-related AE (human, in vivo): (0.8) %
- Discontinued treatment due to a serious AE (human, in vivo): (0.3) %
- Discontinued treatment due to a serious drug-related AE (human, in vivo): (0.0) %
- Discontinued treatment due to an AE (human, in vivo): (1.3) %
- Estimated Difference (95% CI) vs placebo: discontinued because of a serious adverse event (human, in vivo): −1.2 (−2.5 to 0.0) percentage points
- Estimated Difference (95% CI) vs placebo: discontinued because of a serious adverse event related to the assigned regimen (human, in vivo): 0.0 (−0.5 to 0.5) percentage points
- Estimated Difference (95% CI) vs placebo: discontinued because of an adverse event (human, in vivo): −1.4 (−3.1 to 0.1) percentage points
- Estimated Difference (95% CI) vs placebo: discontinued because of an adverse event related to the assigned regimen (human, in vivo): 0.1 (−0.8 to 1.1) percentage points
- Estimated Difference (95% CI) vs placebo: ≥1 Adverse event (human, in vivo): −2.5 (−7.4 to 2.3) percentage points
- Estimated Difference (95% CI) vs placebo: ≥1 Adverse event related to the assigned regimen (human, in vivo): −0.4 (−3.3 to 2.5) percentage points
- Estimated Difference (95% CI) vs placebo: ≥1 Serious adverse event (human, in vivo): −2.7 (−5.6 to 0.2) percentage points
- Estimated Difference (95% CI) vs placebo: ≥1 Serious adverse event related to the assigned regimen (human, in vivo): −0.1 (−0.8 to 0.4) percentage points
- Estimated difference vs placebo: At least 1 AE (human, in vivo): −4.6%
- Estimated difference vs placebo: At least 1 drug-related AE (human, in vivo): 1.4%
- Estimated difference vs placebo: At least 1 serious AE (human, in vivo): −6.7%
- Estimated difference vs placebo: At least 1 serious drug-related AE (human, in vivo): 0.0%
- Estimated difference vs placebo: Discontinued treatment due to a drug-related AE (human, in vivo): −0.0%
- Estimated difference vs placebo: Discontinued treatment due to a serious AE (human, in vivo): −2.1%
- Estimated difference vs placebo: Discontinued treatment due to a serious drug-related AE (human, in vivo): 0.0%
- Estimated difference vs placebo: Discontinued treatment due to an AE (human, in vivo): −2.1%
- adverse event related to the trial regimen: diarrhea (human, in vivo): 1.7%
- adverse event related to the trial regimen: dizziness (human, in vivo): 1.0%
- adverse event related to the trial regimen: nausea (human, in vivo): 1.4%
- adverse event: diarrhea (human, in vivo): 2.3%
- drug-related AE: diarrhea (human, in vivo): 3.1%
- drug-related AE: nausea (human, in vivo): 2.3%
- participants with adverse events considered related to the trial regimen (human, in vivo): 8.0%
- ≥1 Adverse event (human, in vivo): 216 (30.4) number (percent)
- ≥1 Adverse event related to the assigned regimen (human, in vivo): 57 (8.0) number (percent)
- ≥1 Serious adverse event (human, in vivo): 49 (6.9) number (percent)
- ≥1 Serious adverse event related to the assigned regimen (human, in vivo): 0 number (percent)
- hematological laboratory tests (in vivo): no clinically significant abnormalities
- liver parameters (in vivo): No clinically significant abnormalities in liver parameters
- participants meeting prespecified criteria for platelets <50,000/μL or potential drug-induced liver injury (in vivo): No participants in the Compound A group met prespecified criteria
- participants meeting prespecified criteria for postbaseline platelet count below 50,000 per microliter (in vivo): One participant
- reductions in viral load from baseline versus placebo (SARS-CoV-2 RNA; Part 2 interim analysis): significantly greater reductions in viral load from baseline at Days 3 and 5 than placebo
- reductions from baseline in mean viral load versus placebo (SARS-CoV-2 RNA; final all-randomized analysis, days 3, 5 (end-of-treatment visit), and 10): greater reductions from baseline in mean viral load than placebo
- SARS-CoV-2 RNA titer, mean (SARS-CoV-2 RNA; MITT, Baseline): 6.85 log^10 copies/ml
- SARS-CoV-2 RNA titer, mean (SARS-CoV-2 RNA; MITT, Day 3): 5.82 log^10 copies/ml
- SARS-CoV-2 RNA titer, mean change from baseline (SARS-CoV-2 RNA; MITT, Day 3): −1.04 log^10 copies/ml
- SARS-CoV-2 RNA titer, mean (SARS-CoV-2 RNA; MITT, Day 10): 3.70 log^10 copies/ml
- SARS-CoV-2 RNA titer, mean change from baseline (SARS-CoV-2 RNA; MITT, Day 10): −3.18 log^10 copies/ml
- SARS-CoV-2 RNA titer, mean (SARS-CoV-2 RNA; MITT, Day 15): 3.20 log^10 copies/ml
- SARS-CoV-2 RNA titer, mean change from baseline (SARS-CoV-2 RNA; MITT, Day 15): −3.69 log^10 copies/ml
- SARS-CoV-2 RNA titer, mean (SARS-CoV-2 RNA; MITT, Day 29): 2.90 log^10 copies/ml
- SARS-CoV-2 RNA titer, mean change from baseline (SARS-CoV-2 RNA; MITT, Day 29): −4.08 log^10 copies/ml
- SARS-CoV-2 RNA titer, mean (SARS-CoV-2 RNA; MITT, EOT (Day 5)): 4.80 log^10 copies/ml
- SARS-CoV-2 RNA titer, mean change from baseline (SARS-CoV-2 RNA; MITT, EOT (Day 5)): −2.09 log^10 copies/ml
- SARS-CoV-2 RNA titer, mean (SARS-CoV-2 RNA; baseline RNA titer >10^6 copies/ml, Baseline): 7.71 log^10 copies/ml
- SARS-CoV-2 RNA titer, mean (SARS-CoV-2 RNA; [5]): 6.56 log^10 copies/ml
- SARS-CoV-2 RNA titer, mean change from baseline (SARS-CoV-2 RNA; [5]): −1.17 log^10 copies/ml
- SARS-CoV-2 RNA titer, mean (SARS-CoV-2 RNA; [6]): 3.94 log^10 copies/ml
- SARS-CoV-2 RNA titer, mean change from baseline (SARS-CoV-2 RNA; [6]): −3.79 log^10 copies/ml
- SARS-CoV-2 RNA titer, mean (SARS-CoV-2 RNA; [7]): 3.26 log^10 copies/ml
- SARS-CoV-2 RNA titer, mean change from baseline (SARS-CoV-2 RNA; [7]): −4.47 log^10 copies/ml
- SARS-CoV-2 RNA titer, mean (SARS-CoV-2 RNA; [8]): 2.93 log^10 copies/ml
- SARS-CoV-2 RNA titer, mean change from baseline (SARS-CoV-2 RNA; [8]): −4.87 log^10 copies/ml
- SARS-CoV-2 RNA titer, mean (SARS-CoV-2 RNA; [9]): 5.25 log^10 copies/ml
- SARS-CoV-2 RNA titer, mean change from baseline (SARS-CoV-2 RNA; [9]): −2.49 log^10 copies/ml
- SARS-CoV-2 RNA titer, mean (SARS-CoV-2 RNA; baseline RNA titer ≤10^6 copies/ml, Baseline): 4.58 log^10 copies/ml
- SARS-CoV-2 RNA titer, mean (SARS-CoV-2 RNA; [10]): 3.88 log^10 copies/ml
- SARS-CoV-2 RNA titer, mean change from baseline (SARS-CoV-2 RNA; [10]): −0.67 log^10 copies/ml
- SARS-CoV-2 RNA titer, mean (SARS-CoV-2 RNA; [11]): 3.05 log^10 copies/ml
- SARS-CoV-2 RNA titer, mean change from baseline (SARS-CoV-2 RNA; [11]): −1.49 log^10 copies/ml
- SARS-CoV-2 RNA titer, mean (SARS-CoV-2 RNA; [12]): 3.01 log^10 copies/ml
- SARS-CoV-2 RNA titer, mean change from baseline (SARS-CoV-2 RNA; [12]): −1.51 log^10 copies/ml
- SARS-CoV-2 RNA titer, mean (SARS-CoV-2 RNA; [13]): 2.81 log^10 copies/ml
- SARS-CoV-2 RNA titer, mean change from baseline (SARS-CoV-2 RNA; [13]): −1.76 log^10 copies/ml
- SARS-CoV-2 RNA titer, mean (SARS-CoV-2 RNA; [14]): 3.56 log^10 copies/ml
- SARS-CoV-2 RNA titer, mean change from baseline (SARS-CoV-2 RNA; [14]): −1.00 log^10 copies/ml
